“And” between values parts separate entries of the source, which are not always exact repeats. Identical values can stand only once. Toxic doses and inconclusive results are not listed.

The test system of the assay is P388 leukemia ip, CD2F1 mice, survival T/C. As to the kind of experiment: NCI In Vivo Anticancer Drug Screen. Data for tumor model P388 Leukemia (intraperitoneal) in CD2F1 (CDF1) mice. The settings on record: endpoint: median survival time, higher = longer survival. Summed up: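 Mice carrying the transplanted tumor received test compound or vehicle. Survival was recorded in each group, and the value is the treated-group measurement divided by that of the vehicle-treated control group.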

[1] abbreviates: dose: 50.0 mg/kg/injection, schedule: Q01DX009 (ip), vehicle: Klucel (hydroxypropylcellulose) (HPC).
Where [2] appears, read: dose: 100.0 mg/kg/injection, schedule: Q01DX009 (ip), vehicle: Klucel (hydroxypropylcellulose) (HPC).
The mark [3] stands for this setting: dose: 50.0 mg/kg/injection, schedule: Q01DX005 (ip), vehicle: saline.
The mark [4] stands for this setting: dose: 100.0 mg/kg/injection, schedule: Q01DX005 (ip), vehicle: saline.
The mark [5] stands for this setting: dose: 60.0 mg/kg/injection, schedule: Q01DX005 (ip), vehicle: Klucel (hydroxypropylcellulose) (HPC).
[6] abbreviates: dose: 120.0 mg/kg/injection, schedule: Q01DX005 (ip), vehicle: Klucel (hydroxypropylcellulose) (HPC).
Where [7] appears, read: dose: 240.0 mg/kg/injection, schedule: Q01DX005 (ip), vehicle: Klucel (hydroxypropylcellulose) (HPC).
[8] abbreviates: dose: 50.0 mg/kg/injection, schedule: Q01DX009 (ip), vehicle: saline with Tween-80.
Setting [9] is: dose: 100.0 mg/kg/injection, schedule: Q01DX009 (ip), vehicle: saline with Tween-80.
The mark [10] stands for this setting: dose: 60.0 mg/kg/injection, schedule: Q01DX005 (ip), vehicle: saline with Tween-80.
[11] abbreviates: dose: 120.0 mg/kg/injection, schedule: Q01DX005 (ip), vehicle: saline with Tween-80.
The mark [12] stands for this setting: dose: 240.0 mg/kg/injection, schedule: Q01DX005 (ip), vehicle: saline with Tween-80.

Regarding `COc1cccc2c1C(=O)c1c(O)c3c(c(O)c1C2=O)C[C@@](O)(C(=O)COC(=O)Cc1ccccc1)C[C@@H]3OC1CC(N)C(O)C(C)O1` (stereo partly drawn), the T/C is, setting by setting: (dose: 1.0 mg/kg/injection, schedule: Q01DX009 (ip), vehicle: saline with Tween-80) 166 % of control and 194 % of control; (dose: 1.32 mg/kg/injection, schedule: Q01DX009 (ip), vehicle: saline sonified) 195 % of control; (dose: 2.0 mg/kg/injection, schedule: Q01DX009 (ip), vehicle: saline sonified) 215 % of control; (dose: 2.0 mg/kg/injection, schedule: Q01DX009 (ip), vehicle: saline with Tween-80) 151 % of control and 166 % of control and 212 % of control; (dose: 3.0 mg/kg/injection, schedule: Q01DX009 (ip), vehicle: saline sonified) 270 % of control; (dose: 16.0 mg/kg/injection, schedule: Q01DX009 (ip), vehicle: saline with Tween-80) 105 % of control.

Take `C=C1C(=O)OC(C)(C)C1c1ccccc1` (stereo not drawn): the T/C is 96 % of control under setting [1] and 90 % of control under setting [2].

On to `O=C1C2=Cc3ccccc3CN2Cc2ccccc21`, for which the T/C reads like this: (dose: 18.75 mg/kg/injection, schedule: Q01DX009 (ip), vehicle: saline with Tween-80) 111 % of control; (dose: 37.5 mg/kg/injection, schedule: Q01DX009 (ip), vehicle: saline with Tween-80) 90 % of control.

With `COC(CCCNCCCC(OC)OC)OC`, the T/C reads like this: under setting [3], 102 % of control; under setting [4], 103 % of control; (dose: 200.0 mg/kg/injection, schedule: Q01DX005 (ip), vehicle: saline) 103 % of control.

`O=S(=O)(O)C(F)(F)F`: the T/C is 101 % of control (dose: 25.0 mg/kg/injection, schedule: Q01DX005 (ip), vehicle: water); 100 % of control (dose: 50.0 mg/kg/injection, schedule: Q01DX005 (ip), vehicle: water); 100 % of control (dose: 200.0 mg/kg/injection, schedule: Q01DX005 (ip), vehicle: water).

For `C=CC(=NC(C)(C)C)Nc1ccccc1Cl`, the T/C was 104 % of control (dose: 3.12 mg/kg/injection, schedule: Q01DX009 (ip), vehicle: Klucel (hydroxypropylcellulose) (HPC)); 103 % of control (dose: 6.25 mg/kg/injection, schedule: Q01DX009 (ip), vehicle: Klucel (hydroxypropylcellulose) (HPC)); 116 % of control (dose: 6.25 mg/kg/injection, schedule: Q01DX009 (ip), vehicle: saline); 102 % of control (dose: 12.5 mg/kg/injection, schedule: Q01DX009 (ip), vehicle: Klucel (hydroxypropylcellulose) (HPC)); 118 % of control and 93 % of control (dose: 12.5 mg/kg/injection, schedule: Q01DX009 (ip), vehicle: saline); 111 % of control (dose: 25.0 mg/kg/injection, schedule: Q01DX009 (ip), vehicle: saline).

`Cc1cc2c(cc1C)NC(=O)C(NC(=O)c1ccc(Cl)cc1)C=N2` (stereo not drawn): the T/C is 92 % of control under setting [5], 93 % of control under setting [6] and 93 % of control under setting [7].

Turning to `CC1(C)CC(NC(=O)c2cc([N+](=O)[O-])c(S(=O)(=O)O)c([N+](=O)[O-])c2)CC(C)(C)N1O`, the T/C (dose: 100.0 mg/kg/injection, schedule: Q04DX002 (ip), vehicle: saline with Tween-80) was 110 % of control; the T/C (dose: 200.0 mg/kg/injection, schedule: Q04DX002 (ip), vehicle: saline with Tween-80) was 100 % of control; the T/C (dose: 400.0 mg/kg/injection, schedule: Q04DX002 (ip), vehicle: saline with Tween-80) was 107 % of control.

Regarding `CC(=O)N1C(=O)CC23c4cccc([N+](=O)[O-])c4C(=O)N2CCCN13` (stereo not drawn), the T/C is 97 % of control under setting [5], 97 % of control under setting [6] and 91 % of control under setting [7].

Take `CC(C)=CCCC(C)C1=C(O)C(=O)C(C)=CC1=O` (stereo not drawn): the T/C (dose: 12.5 mg/kg/injection, schedule: Q01DX005 (ip), vehicle: Klucel (hydroxypropylcellulose) (HPC)) was 108 % of control.

On to `N=C(N)SCC[n+]1cccc2cccc(O)c21`, for which the T/C is, setting by setting: (dose: 100.0 mg/kg/injection, schedule: Q04DX002 (ip), vehicle: saline) 98 % of control; (dose: 200.0 mg/kg/injection, schedule: Q04DX002 (ip), vehicle: saline) 100 % of control.

`OC(c1ccccc1)(C(F)(F)F)C(F)(F)F`: the T/C is 110 % of control under setting [8] and 92 % of control under setting [9].

Turning to `CC(C)SC(=S)Nc1ccc(Cl)c([N+](=O)[O-])c1`, the T/C is 99 % of control (dose: 50.0 mg/kg/injection, schedule: Q01DX009 (ip), vehicle: saline); 93 % of control (dose: 100.0 mg/kg/injection, schedule: Q01DX009 (ip), vehicle: saline); 103 % of control (dose: 200.0 mg/kg/injection, schedule: Q01DX009 (ip), vehicle: saline).

Regarding `CCCCN=C(N)N/N=C(\C)c1cccc2c1Cc1c(/C(C)=N/NC(N)=NCCCC)cccc1-2`, the T/C (dose: 12.5 mg/kg/injection, schedule: Q04DX002 (ip), vehicle: saline with Tween-80) was 108 % of control.

On to `COc1ccc(-c2sc(/N=C/c3cc(Br)cc(Br)c3O)c(C#N)c2C)cc1OC`, for which the T/C runs as follows: (dose: 12.5 mg/kg/injection, schedule: Q01DX009 (ip), vehicle: saline with Tween-80) 103 % of control; (dose: 25.0 mg/kg/injection, schedule: Q01DX009 (ip), vehicle: saline with Tween-80) 97 % of control; under setting [8], 99 % of control; under setting [9], 94 % of control.

For `CCn1cc(C(=O)O)c(=O)c2nc(N3CCOCC3)sc21`, the T/C is, setting by setting: under setting [10], 106 % of control; under setting [11], 95 % of control; under setting [12], 98 % of control.

Regarding `Nc1ccccc1/C=C/c1ccnc2ccccc12`, the T/C is, setting by setting: (dose: 12.5 mg/kg/injection, schedule: Q01DX001 (ip), vehicle: Klucel (hydroxypropylcellulose) (HPC)) 101 % of control and 96 % of control; (dose: 25.0 mg/kg/injection, schedule: Q01DX001 (ip), vehicle: Klucel (hydroxypropylcellulose) (HPC)) 100 % of control and 89 % of control; (dose: 50.0 mg/kg/injection, schedule: Q01DX001 (ip), vehicle: Klucel (hydroxypropylcellulose) (HPC)) 91 % of control and 97 % of control; (dose: 100.0 mg/kg/injection, schedule: Q01DX001 (ip), vehicle: Klucel (hydroxypropylcellulose) (HPC)) 87 % of control and 94 % of control.

For `CCN(CC)CCCC(C)Nc1c(C)cnc2cc(Cl)c(C)cc12` (stereo not drawn), the T/C under setting [3] was 103 % of control and the T/C under setting [4] was 100 % of control.

With `Cl/N=C(\Nc1ccccc1)c1ccccn1`, the T/C was 105 % of control under setting [8] and 96 % of control under setting [9].

Regarding `O=[N+]([O-])c1ccc(C=C2C=CN(CCO)C=C2)cc1`, the T/C is, setting by setting: (dose: 50.0 mg/kg/injection, schedule: Q01DX005 (ip), vehicle: saline with Tween-80) 100 % of control; (dose: 100.0 mg/kg/injection, schedule: Q01DX005 (ip), vehicle: saline with Tween-80) 108 % of control.

Turning to `C1=CCC2COCC2C1` (stereo not drawn), the T/C by setting is: under setting [8], 98 % of control; under setting [9], 102 % of control; (dose: 200.0 mg/kg/injection, schedule: Q01DX009 (ip), vehicle: saline with Tween-80) 100 % of control.

Consider `CCOC(=O)CSC(=O)c1cccnc1Oc1ccccc1`, for which the T/C by setting is: (dose: 50.0 mg/kg/injection, schedule: Q01DX005 (ip), vehicle: Klucel (hydroxypropylcellulose) (HPC)) 94 % of control; (dose: 100.0 mg/kg/injection, schedule: Q01DX005 (ip), vehicle: Klucel (hydroxypropylcellulose) (HPC)) 90 % of control; (dose: 200.0 mg/kg/injection, schedule: Q01DX005 (ip), vehicle: Klucel (hydroxypropylcellulose) (HPC)) 93 % of control.

As for `FC(F)(F)C1=NNC(c2ccc3ccccc3c2)=NN1`, the T/C under setting [1] is 95 % of control; the T/C under setting [2] is 90 % of control; the T/C (dose: 200.0 mg/kg/injection, schedule: Q01DX009 (ip), vehicle: Klucel (hydroxypropylcellulose) (HPC)) is 92 % of control.

With `CC1(C)OCC(C2OC(C)(C)OC2C2OC(O)C=CC2=O)O1` (stereo not drawn), the T/C is, setting by setting: (dose: 0.78 mg/kg/injection, schedule: Q01DX009 (ip), vehicle: distilled water + Tween-80) 108 % of control and 103 % of control; (dose: 1.56 mg/kg/injection, schedule: Q01DX009 (ip), vehicle: distilled water + Tween-80) 116 % of control and 103 % of control; (dose: 3.13 mg/kg/injection, schedule: Q01DX009 (ip), vehicle: distilled water + Tween-80) 100 % of control and 94 % of control; (dose: 6.25 mg/kg/injection, schedule: Q01DX009 (ip), vehicle: distilled water + Tween-80) 100 % of control.

For `CCOC(=O)C1=NN(c2ccccc2)C(C(=O)OC)[C@@H]1C(=O)OC` (stereo partly drawn), the T/C was 99 % of control under setting [10], 98 % of control under setting [11] and 96 % of control under setting [12].
